Source: patent US8586555B2, “Immunomodulatory compositions, formulations, and methods for use thereof” (Dynavax Technologies Corporation, priority 2001, dated 2013)

Tested on: human peripheral blood mononuclear cells (hPBMC)
Test: human PBMC assay, Example 6
Format: cell-based
Experimental: Hexameric oligonucleotides were tested for immunomodulatory activity alone and complexed with lactic acid/glycolic acid copolymer microcarrier beads using a human peripheral blood mononuclear cells (hPBMC) assay. Peripheral blood was collected from healthy volunteers by venipuncture using heparinized syringes. Blood was layered onto a FICOLL® (Amersham Pharmacia Biotech) cushion and centrifuged. hPBMCs, located at the FICOLL® interface, were collected, then washed twice with cold phosphate buffered saline (PBS). The cells were resuspended and cultured in 48 well plates at 2×10^6 cells/mL at 37° C. in RPMI 1640 with 10% heat-inactivated human AB serum plus 50 units/mL penicillin, 50 μg/mL streptomycin, 300 μg/mL glutamine, 1 mM sodium pyruvate, and 1×MEM non-essential amino acids (NEAA).
Oligonucleotides were tested as single agents, or in combination with PLGA microspheres (unmodified or cationic). All oligonucleotides contained 100% phosphorothioate linkages and were tested at 20 μg/ml. The PLGA microcarriers were used at 250 μg/ml. When oligos were tested with PLGA microcarriers, the oligo and the microcarriers were added at the same time to the culture. The cells were cultured in the in the presence of test samples for 24 hours, then cell-free medium was collected from each well and assayed for IFN-γ and IFN-α concentration. Two different oligonucleotides were used as controls: a first oligonucleotide known to have immunostimulatory activity (a 22mer oligonucleotide containing an ISS (“ISS+,” 5′-[…]-3′(SEQ ID NO:2)) and a second oligonucleotide of similar sequence but lacking immunostimulatory activity (“ISS−,” 5′-[…]-3′ (SEQ ID NO:1)). SAC (PANSORBIN® CalBiochem, 1/5000 dilution) and a untreated culture were used as additional positive and negative controls, respectively. SAC contains Staph. aureus (Cowan I) cell material. All samples were assayed in duplicate.
IFN-γ and IFN-α were assayed using CYTOSCREEN™ ELISA kits from BioSource International, Inc., according to the manufacturer's instructions.
The immunomodulatory activity of the oligonucleotides used in Examples 3 and 4 was confirmed with the human PBMC assay using PBMCs from an additional four donors (donors 28051-28054). Oligonucleotides were tested alone or in combination with cationic PLGA as described in Example 3, except that 96 well plates were used instead of 48 well plates and the oligonucleotides were premixed with the cationic microspheres at room temperature for 15 minutes before they were added to the culture, rather than being added simultaneously to the culture.
Additional oligonucleotides were tested for immunomodulatory activity in the human PBMC assay. Oligonucleotides were tested alone or in combination with cPLGA as described in Example 5.
Additional oligonucleotides were tested using hPBMCs from volunteers 154-157 using the same assay. Results, which are shown in Table 7, confirm the activity of oligonucleotides fitting the formula 5′-X1TCGX2-3′, where the oligonucleotide is a 3-6mer, X1 is zero or one nucleotide and X2 is zero to three nucleotides.

[1] = delivered as oligonucleotide/MC complex (cPLGA)

Substance | IFN-α Mean (mean of volunteers 154-157) [pg/mL] | IFN-γ Mean (mean of volunteers 154-157) [pg/mL] | IFN-α (volunteer 154) [pg/mL] | IFN-γ (volunteer 154) [pg/mL] | IFN-α (volunteer 155) [pg/mL] | IFN-γ (volunteer 155) [pg/mL] | IFN-α (volunteer 156) [pg/mL] | IFN-γ (volunteer 156) [pg/mL] | IFN-α (volunteer 157) [pg/mL] | immunomodulatory activity [1] | IFN-α (donor 28075) [pg/mL] | IFN-γ (donor 28075) [pg/mL] | IFN-α (donor 28076) [pg/mL] | IFN-γ (donor 28076) [pg/mL] | IFN-α (donor 28077) [pg/mL] | IFN-γ (donor 28077) [pg/mL] | IFN-α (donor 28078) [pg/mL] | IFN-γ (donor 28078) [pg/mL] | IFN-α Mean (mean of donors 28075-28078) [pg/mL] | IFN-γ Mean (mean of donors 28075-28078) [pg/mL] | other results
5′-TTTTCG-3′ [Oligonucleotide 6-5] | 0 | 3 | 0 | 0 | 0 | 0 | 0 | 11 | 0 |  |  |  |  |  |  |  |  |  |  |  | IFN-γ (volunteer 157): 0 pg/mL
5′-ACGTTT-3′ [Oligonucleotide 6-13] |  |  |  |  |  |  |  |  |  | inactive | 10 | 8 | 39 | 225 | 28 | 18 | 34 | 15 | 28 | 67 | immunomodulatory activity (delivered alone): inactive
5′-TCGCGA-3′ [Oligonucleotide 6-10] | 0 | 4 | 0 | 0 | 0 | 0 | 0 | 15 | 0 |  |  |  |  |  |  |  |  |  |  |  | IFN-γ (volunteer 157): 0 pg/mL
5′-TCGT-3′ [Oligonucleotide 4-1] |  |  |  |  |  |  |  |  |  | active in two out of four donors | 0 | 9 | 3 | 12 | 0 | 14 | 10 | 14 | 3 | 12 | 
5′-CCGTTT-3′ [Oligonucleotide 6-14] |  |  |  |  |  |  |  |  |  | inactive | 15 | 11 | 51 | 12 | 9 | 14 | 230 | 11 | 76 | 12 | immunomodulatory activity (delivered alone): inactive
5′-TCGTCG-3′ [Oligonucleotide 6-12] |  |  |  |  |  |  |  |  |  | highly active | 5 | 8 | 3 | 13 | 187 | 13 | 181 | 18 | 94 | 13 | 
5′-GACGTT-3′ [Oligonucleotide 6-17, reference compound] | 0 | 4 | 0 | 0 | 0 | 0 | 0 | 16 | 0 | largely inactive |  |  |  |  |  |  |  |  |  |  | IFN-γ (volunteer 157): 0 pg/mL
